The values that follow come from patent publication US20060115815A1 (priority 2002, published 2006).

The Ki is the equilibrium dissociation constant of an inhibitor or competing ligand from its target. Broadly, the EC50 is the concentration giving half of the maximal effect.

Test [1] deals with recombinant HIV-1 protease (Human immunodeficiency virus type 1 group M subtype B, UniProt P04585). Briefly: biochemical. The format is biochemical.
Test [2] concerns wild-type HIV-1 strain IIIB. Kind of test: microbe, parasite or virus in culture. The format is cell-based. The conditions noted are these: read-out: EC50.
Test [3] concerns mutant HIV-1 with I84V/L90M mutations in the protease gene. Type of test: cell-based.
[4] abbreviates: fold difference in EC50, mutant vs. wild type.
Setting [5] is: Ki (pM), class symbols, Table 10.

Molecules are shown by their SMILES. Read-outs that look alike come from different tables or passages of the source. Bounds are passed on as bounds.

With `CC[C@H](OP(=O)(O)COc1ccc(C[C@H](NC(=O)O[C@H]2CO[C@H]3OCC[C@H]32)[C@H](O)CN(CC(C)C)S(=O)(=O)c2ccc(OC)cc2)cc1)C(=O)O` [drawing 659 R1=OH R2=(S)Hba-OH], the inhibition constant Ki in test [1] (read-out: Ki) was in the range of 10 to 100 pM.

On to `CC(C)CN(CC(O)C(Cc1ccccc1)NC(=O)OC1COC2OCCC12)S(=O)(=O)c1ccc(OCP(=O)(O)Oc2ccccc2)cc1` (stereo not drawn), for which the Ki in test [1] (Ki) lay in the range of 10 to 100 pM.

`CCOC(=O)C(C)OP(=O)(Oc1ccccc1)c1ccc(CN(C)CC(NC(=O)OC2COC3OCCC23)C(O)CN(CC(C)C)S(=O)(=O)c2ccc(OC)cc2)cc1` (stereo not drawn): the EC50 in test [2] was below 50 nM. Moreover, in test [3] (setting [4]), the I84V/L90M fold change result is reported as “+ (>3 to ≦10)”.

On to `CC(C)CN(C[C@@H](O)[C@H](Cc1ccc(OCP(=O)(OCc2ccccc2)OC(C)C(=O)OCc2ccccc2)cc1)NC(=O)O[C@H]1CO[C@H]2OCC[C@H]21)S(=O)(=O)c1ccc(F)cc1` (stereo partly drawn), for which the half-maximal effective concentration (EC50) in test [2] lay within 50 to 500 nM. In test [3] (I84V/L90M mutant), the I84V/L90M fold change entry is given as “+ (>3 to ≦10)”.

Take `CCOC(=O)C(C)OP(=O)(COc1ccc(C[C@H](NC(=O)O[C@H]2CO[C@H]3OCC[C@H]32)[C@H](O)CN(CC(C)C)S(=O)(=O)c2ccccc2)cc1)Oc1ccccc1` (stereo partly drawn): the EC50 in test [2] was below 50 nM. In test [3] (I84V/L90M mutant), the I84V/L90M fold change entry is listed as “+ (>3 to ≦10)”.

For the compound `CCCCOC(=O)C(C)OP(=O)(COc1ccc(C[C@H](NC(=O)O[C@H]2CO[C@H]3OCC[C@H]32)[C@H](O)CN(CC(C)C)S(=O)(=O)c2cccc(N)c2)cc1)Oc1ccccc1` (stereo partly drawn) [drawing 763], the inhibition constant (Ki) in test [1] (read-out: Ki) was 10 to 100 pM. The EC50 in test [2] lay in the range of 50 to 500 nM.

In the case of `CCOC(=O)C(C)OP(=O)(Cc1ccc2c(c1)CCN(C[C@H](NC(=O)O[C@H]1CO[C@H]3OCC[C@H]31)[C@H](O)CN(CC(C)C)S(=O)(=O)c1ccc(OC)cc1)C2)Oc1ccccc1` (stereo partly drawn), in test [2], the 50% effective concentration (EC50) was 50 to 500 nM. In test [3] (setting [4]), the I84V/L90M fold change entry is reported as “+ (>3 to ≦10)”.

As to `CC(C)CN(CC(O)C(Cc1ccc(OCP(=O)(O)OC(C)C(=O)O)cc1)NC(=O)OC1COC2OCCC12)S(=O)(=O)c1ccc(CN2CCOCC2)cc1` (stereo not drawn), the inhibition constant (Ki) in test [1] (read-out: Ki) is above 1000 pM.

With `COc1ccc(S(=O)(=O)N(CC(C)C)CC(O)C(Cc2ccc(NCP(=O)(NC(C)C(=O)OC(C)C)Oc3ccccc3)cc2)NC(=O)OC2COC3OCCC23)cc1` (stereo not drawn) [drawing 705], the inhibitory constant (Ki) in test [1] (setting [5]) is below 10 pM.

Consider `COC(=O)C(C)OP(=O)(COc1ccc(CC(NC(=O)OC2COC3OCCC23)C(O)CN(CC(C)C)S(=O)(=O)c2ccc(OC)cc2)cc1)Oc1ccccc1` [drawing 658 R1=OPh R2=(R)Lac-Me], for which the inhibition constant Ki in test [1] (setting [5]) is below 10 pM.

As to `COc1ccc(S(=O)(=O)N(CC(C)C)CC(O)C(CC2=CCN(CP(=O)(O)OC(C)C(=O)O)CC2)NC(=O)OC2COC3OCCC23)cc1` (stereo not drawn), the inhibition constant Ki in test [1] (read-out: Ki) was above 1000 pM.

Consider `CCOP(=O)(CCC1=CCN(CC(NC(=O)OC2COC3OCCC23)C(O)CN(CC(C)C)S(=O)(=O)c2ccc(OC)cc2)CC1)OCC` (stereo not drawn), for which the concentration giving a half-maximal response (EC50) in test [2] was below 50 nM. For the same compound, the I84V/L90M fold change result in test [3] (setting [4]) is “+ (>3 to ≦10)”.

As to `COc1ccc(S(=O)(=O)N(CC(C)C)C[C@@H](O)[C@H](CN2CCc3cc(OCP(=O)(O)OC(C)C(=O)O)ccc3C2)NC(=O)O[C@H]2CO[C@H]3OCC[C@H]32)cc1` (stereo partly drawn), in test [1] (read-out: Ki), the inhibitory constant (Ki) lay within 100 to 1000 pM.

In the case of `COc1ccc(S(=O)(=O)N(CC(O)C(Cc2ccccc2)NC(=O)OC2COC3OCCC23)CC(C)(C)CO)cc1` (stereo not drawn), in test [3] (I84V/L90M mutant), the I84V/L90M fold change entry is given as “+++ (>30)”.

For the compound `COc1ccc(S(=O)(=O)N(CC(C)C)CC(O)C(CC2=CCN(CCP(=O)(OCc3ccccc3)OCc3ccccc3)CC2)NC(=O)OC2COC3OCCC23)cc1` (stereo not drawn), the I84V/L90M fold change result in test [3] (setting [4]) is “+ (>3 to ≦10)”.

For `COc1ccc(S(=O)(=O)N(CCN2CCOCC2)CC(O)C(Cc2ccc(OCP(=O)(O)O)cc2)NC(=O)OC2COC3OCCC23)cc1` (stereo not drawn), in test [3] (I84V/L90M mutant), the I84V/L90M fold change entry is recorded as “+ (>3 to ≦10)”.

With `COc1ccc(S(=O)(=O)N(CC(C)C)C[C@@H](O)[C@H](Cc2ccc(OCP(=O)(O)O)cc2)NC(=O)OC2CCOC2)cc1` (stereo partly drawn) [OMe, OH], in test [3] (I84V/L90M mutant), the I84V/L90M fold change entry was “+++ (>30)”.

With `COc1ccc(S(=O)(=O)N(CC(C)C)CC(O)C(CN(C)Cc2ccc(P(=O)(O)OC(C)C(=O)O)cc2)NC(=O)OC2COC3OCCC23)cc1` (stereo not drawn), the Ki in test [1] (read-out: Ki) was above 1000 pM.

In the case of `CC(C)CN(CC(O)C(Cc1ccc(OCP(=O)(O)OC(C)C(=O)O)cc1)NC(=O)OC1COC2OCCC12)S(=O)(=O)c1ccc(CO)cc1` (stereo not drawn), the inhibitory constant (Ki) in test [1] (read-out: Ki) fell in the range of 10 to 100 pM.

For `CCOC(=O)C(C)OP(=O)(COc1ccc2c(c1)CCN(CC(NC(=O)OC1COC3OCCC13)C(O)CN(CC(C)C)S(=O)(=O)c1ccc(OC)cc1)C2)Oc1ccccc1` (stereo not drawn), in test [3] (setting [4]), the I84V/L90M fold change result is listed as “+ (>3 to ≦10)”.

For the compound `COc1ccc(S(=O)(=O)N(CC(C)C)CC(O)C(Cc2ccc(O)cc2)NC(=O)OC2COC3OCCC23)cc1` (stereo not drawn), the EC50 in test [2] was below 50 nM. In addition, in test [3] (I84V/L90M mutant), the I84V/L90M fold change result is “— (≦3)”.

With `CC(C)CN(CC(O)C(Cc1ccc(OCP(=O)(OCc2ccccc2)OCc2ccccc2)cc1)NC(=O)OC1COC2OCCC12)S(=O)(=O)c1ccc(F)cc1` (stereo not drawn), the I84V/L90M fold change entry in test [3] (I84V/L90M mutant) is given as “+ (>3 to ≦10)”.

For the compound `COc1ccc(S(=O)(=O)N(CC(C)C)C[C@@H](O)[C@H](Cc2ccc(OCP(=O)(Oc3ccccc3)Oc3ccccc3)cc2)NC(=O)OC2CCOC2)cc1` (stereo partly drawn) [OMe, phenol], in test [3] (I84V/L90M mutant), the I84V/L90M fold change result is recorded as “+ (>3 to ≦10)”.

Turning to `COc1ccc(S(=O)(=O)N(Cc2ccccc2)CC(O)C(Cc2ccccc2)NC(=O)OC2COC3OCCC23)cc1` (stereo not drawn), the I84V/L90M fold change entry in test [3] (I84V/L90M mutant) is recorded as “+++ (>30)”.

For the compound `CCOP(=O)(CCn1nc(O)c2cc(CN3C(=O)N(Cc4ccccc4)[C@H](Cc4ccccc4)[C@H](O)[C@@H](O)[C@H]3Cc3ccccc3)ccc21)OCC`, the IC50 in test [1] (read-out: Enzymatic assay WT IC50/nM) worked out at 109 nM.

In the case of `Cc1ccc(C(=O)N[C@@H](Cc2ccc(OCP(=O)(OCc3ccccc3)OCc3ccccc3)cc2)[C@H](O)CN(CC(C)C)S(=O)(=O)c2ccc(N)cc2)cc1O`, the EC50 in test [2] is 50 to 500 nM. Also, the I84V/L90M fold change result in test [3] (I84V/L90M mutant) is on record as “+ (>3 to ≦10)”.

As to `CC(C)CN(CC(O)C(Cc1ccccc1)NC(=O)OC1COC2OCCC12)S(=O)(=O)c1cccc(O)c1` (stereo not drawn), the I84V/L90M fold change result in test [3] (I84V/L90M mutant) is recorded as “+ (>3 to ≦10)”.

Regarding `COc1ccc(S(=O)(=O)N(CC(C)C)CC(O)C(Cc2ccc(OCc3ccccc3)cc2)NC(=O)OC2COC3OCCC23)cc1` (stereo not drawn), the I84V/L90M fold change entry in test [3] (I84V/L90M mutant) is “— (≦3)”.

`CCOC(=O)C(C)OP(=O)(COc1ccc(C[C@H](NC(=O)O[C@H]2CO[C@H]3OCC[C@H]32)[C@H](O)CN(CC(C)C)S(=O)(=O)c2ccc(F)cc2)cc1)Oc1ccccc1` (stereo partly drawn): in test [2], the 50% effective concentration (EC50) was below 50 nM. For the same compound, in test [3] (I84V/L90M mutant), the I84V/L90M fold change result is reported as “+ (>3 to ≦10)”.

With `COc1ccc(S(=O)(=O)N(CC(C)C)CC(O)C(Cc2ccc(NCP(=O)(NC(C)C(=O)OC(C)C)Oc3ccccc3)cc2)NC(=O)OC2COC3OCCC23)cc1` (stereo not drawn) [drawing 704], the Ki in test [1] (setting [5]) lay within 10 to 100 pM.

Turning to `COc1ccc(S(=O)(=O)N(C[C@@H](O)[C@H](Cc2ccccc2)NC(=O)O[C@H]2CO[C@H]3OCC[C@H]32)CC(C)(C)COCP(=O)(O)O)cc1`, in test [2], the EC50 was in the range of 500 to 5000 nM. The I84V/L90M fold change entry in test [3] (I84V/L90M mutant) is reported as “+++ (>30)”.

On to `CCCCOC(=O)C(CC(C)C)NP(=O)(COc1ccc(CC(NC(=O)OC2COC3OCCC23)C(O)CN(CC(C)C)S(=O)(=O)c2ccc(OC)cc2)cc1)NC(CC(C)C)C(=O)OCCCC` (stereo not drawn) [drawing 655 R1=Leu-Bu R2=Leu-Bu], for which, in test [3] (setting [4]), the I84V/L90M fold change entry is “+ (>3 to ≦10)”.

For `Cc1ccc(C(=O)NC(Cc2ccc(OCP(=O)(O)O)cc2)C(O)CN(CC(C)C)S(=O)(=O)c2ccc(N)cc2)cc1O` (stereo not drawn), the I84V/L90M fold change result in test [3] (I84V/L90M mutant) was “+ (>3 to ≦10)”.

`COc1ccc(S(=O)(=O)N(CC(C)C)CC(O)C(Cc2ccc(C)cc2)NC(=O)OC2COC3OCCC23)cc1` (stereo not drawn): the EC50 in test [2] was below 50 nM. The I84V/L90M fold change entry in test [3] (I84V/L90M mutant) is listed as “+ (>3 to ≦10)”.
